Source: patent US20070021434A1, “NON-NUCLEOSIDE ANTI-HEPACIVIRUS AGENTS AND USES THEREOF” (Migenix Inc., priority 2005, published 2007)
pIC50: −log10 of the molar value.

molecular target: HCV RdRp (NS5B) (UniProt P26663); type: biochemical, hepatitis C virus
Sequence (P26663 whole entry, looked up): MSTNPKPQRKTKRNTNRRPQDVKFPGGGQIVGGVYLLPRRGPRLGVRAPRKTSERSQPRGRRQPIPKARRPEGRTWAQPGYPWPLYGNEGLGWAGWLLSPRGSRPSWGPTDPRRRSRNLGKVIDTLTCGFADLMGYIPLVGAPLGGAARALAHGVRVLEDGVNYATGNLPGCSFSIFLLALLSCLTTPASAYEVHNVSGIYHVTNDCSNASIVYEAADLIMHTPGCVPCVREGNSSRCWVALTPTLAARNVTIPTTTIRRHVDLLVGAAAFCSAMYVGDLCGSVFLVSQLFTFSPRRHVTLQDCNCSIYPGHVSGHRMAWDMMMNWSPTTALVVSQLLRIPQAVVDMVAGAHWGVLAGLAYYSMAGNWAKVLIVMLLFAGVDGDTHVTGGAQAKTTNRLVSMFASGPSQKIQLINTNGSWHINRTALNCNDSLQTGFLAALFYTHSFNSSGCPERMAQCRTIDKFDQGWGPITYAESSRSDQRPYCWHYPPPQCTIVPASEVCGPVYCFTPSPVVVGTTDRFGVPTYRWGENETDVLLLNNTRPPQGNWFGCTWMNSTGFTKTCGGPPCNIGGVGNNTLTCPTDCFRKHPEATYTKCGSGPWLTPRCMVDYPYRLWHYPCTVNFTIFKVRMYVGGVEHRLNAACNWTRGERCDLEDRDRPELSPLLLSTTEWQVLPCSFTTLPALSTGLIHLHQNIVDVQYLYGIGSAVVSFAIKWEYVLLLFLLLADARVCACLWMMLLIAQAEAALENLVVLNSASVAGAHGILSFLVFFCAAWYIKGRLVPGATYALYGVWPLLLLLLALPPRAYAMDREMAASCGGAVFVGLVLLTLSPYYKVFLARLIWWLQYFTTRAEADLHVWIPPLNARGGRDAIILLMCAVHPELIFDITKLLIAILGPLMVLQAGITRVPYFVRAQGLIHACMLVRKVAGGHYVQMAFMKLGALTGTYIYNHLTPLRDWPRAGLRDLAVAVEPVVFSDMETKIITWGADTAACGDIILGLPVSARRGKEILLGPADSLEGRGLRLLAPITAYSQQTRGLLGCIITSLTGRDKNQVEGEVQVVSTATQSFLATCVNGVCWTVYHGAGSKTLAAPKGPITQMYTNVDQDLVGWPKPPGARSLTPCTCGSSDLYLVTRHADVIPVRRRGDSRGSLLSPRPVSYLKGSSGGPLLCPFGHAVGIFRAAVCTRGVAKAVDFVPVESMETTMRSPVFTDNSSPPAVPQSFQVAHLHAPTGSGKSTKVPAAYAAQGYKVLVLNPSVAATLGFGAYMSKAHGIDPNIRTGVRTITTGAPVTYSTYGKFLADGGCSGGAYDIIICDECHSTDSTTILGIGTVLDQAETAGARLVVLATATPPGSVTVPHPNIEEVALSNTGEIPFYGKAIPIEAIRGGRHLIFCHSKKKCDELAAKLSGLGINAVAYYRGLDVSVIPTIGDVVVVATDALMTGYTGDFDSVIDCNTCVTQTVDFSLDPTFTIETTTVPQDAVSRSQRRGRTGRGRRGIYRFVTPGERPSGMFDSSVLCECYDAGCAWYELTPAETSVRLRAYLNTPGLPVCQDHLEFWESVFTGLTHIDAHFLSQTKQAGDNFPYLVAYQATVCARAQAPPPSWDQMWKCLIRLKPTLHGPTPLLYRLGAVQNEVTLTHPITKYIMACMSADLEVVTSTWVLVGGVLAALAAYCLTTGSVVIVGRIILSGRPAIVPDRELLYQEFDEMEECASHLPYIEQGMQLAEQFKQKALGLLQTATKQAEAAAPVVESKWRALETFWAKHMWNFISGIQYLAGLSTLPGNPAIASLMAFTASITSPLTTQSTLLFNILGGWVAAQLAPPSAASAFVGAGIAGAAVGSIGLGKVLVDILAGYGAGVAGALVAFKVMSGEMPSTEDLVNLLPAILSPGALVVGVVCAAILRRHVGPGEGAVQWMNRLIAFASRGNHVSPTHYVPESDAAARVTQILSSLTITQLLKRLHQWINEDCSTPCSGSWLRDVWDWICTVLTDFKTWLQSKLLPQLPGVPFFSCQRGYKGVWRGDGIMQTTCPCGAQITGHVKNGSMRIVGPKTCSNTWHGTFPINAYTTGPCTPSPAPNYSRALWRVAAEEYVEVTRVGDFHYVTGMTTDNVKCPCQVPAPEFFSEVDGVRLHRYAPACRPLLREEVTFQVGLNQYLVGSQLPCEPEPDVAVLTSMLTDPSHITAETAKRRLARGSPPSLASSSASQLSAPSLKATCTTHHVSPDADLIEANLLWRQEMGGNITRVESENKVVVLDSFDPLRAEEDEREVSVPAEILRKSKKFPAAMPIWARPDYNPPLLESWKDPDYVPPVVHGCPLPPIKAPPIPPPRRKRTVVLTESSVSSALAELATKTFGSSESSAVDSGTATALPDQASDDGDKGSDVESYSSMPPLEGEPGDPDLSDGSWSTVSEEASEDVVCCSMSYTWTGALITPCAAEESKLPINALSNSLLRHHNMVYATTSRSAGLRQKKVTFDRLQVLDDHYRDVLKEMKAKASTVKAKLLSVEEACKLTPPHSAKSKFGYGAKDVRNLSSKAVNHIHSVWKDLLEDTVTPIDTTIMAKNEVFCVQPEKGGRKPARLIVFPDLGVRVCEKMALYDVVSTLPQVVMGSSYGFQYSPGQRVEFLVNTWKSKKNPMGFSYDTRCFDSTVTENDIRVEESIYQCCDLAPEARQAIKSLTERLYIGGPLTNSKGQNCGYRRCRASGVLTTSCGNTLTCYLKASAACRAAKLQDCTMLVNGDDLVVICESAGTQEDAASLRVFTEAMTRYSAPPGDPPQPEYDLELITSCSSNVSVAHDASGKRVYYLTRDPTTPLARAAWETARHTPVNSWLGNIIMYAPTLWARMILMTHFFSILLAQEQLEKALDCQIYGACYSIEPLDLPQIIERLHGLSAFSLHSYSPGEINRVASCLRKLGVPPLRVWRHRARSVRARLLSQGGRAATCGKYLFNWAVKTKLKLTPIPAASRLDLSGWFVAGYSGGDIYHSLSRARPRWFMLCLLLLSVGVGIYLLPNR

Row | SMILES | pIC50
1 | Cc1ccc(NC(=O)C(CCCCN)NC(=O)C(N)Cc2cccc3ccccc23)cc1 [Compound 61, (S,R)-6-AMINO-2-(2-AMINO-3-NAPHTHALEN-1-YL-PROPIONYLAMINO)-HEXANOIC ACID P-TOLYLAMIDE] | < 4.30
2 | CSCCC(NC(=O)OCC1c2ccccc2-c2ccccc21)C(=O)Nc1ccc(C)cc1 (stereo not drawn) [Compound 112] | < 4.30
3 | CC(C)(C)c1ccc(NC(=O)[C@H](Cc2ccc(CN)cc2)NC(=O)Nc2ccc(OCc3ccccc3)cc2)cc1 [Compound 174, (S)-3-(4-AMINOMETHYL-PHENYL)-2-[3-(4-BENZYLOXY-PHENYL)-UREIDO]-N-(4-TERT-BUTYL-PHENYL)-PROPIONAMIDE] | > 5.00
4 | NCCC[C@@H](NC(=O)Nc1ccc(-c2ccccc2)cc1)C(=O)Nc1ccc(C2CCCCC2)cc1 [Compound 201, (R)-5-AMINO-2-(3-BIPHENYL-4-YL-UREIDO)-PENTANOIC ACID (4-CYCLOHEXYL-PHENYL)-AMIDE] | > 5.00
5 | NCc1ccc(NC(=O)[C@@H](NC(=O)OCC2c3ccccc3-c3ccccc32)c2ccccc2)cc1 [Compound 315, (S)-[(4-AMINOMETHYL-PHENYLCARBAMOYL)-PHENYL-METHYL]-CARBAMIC ACID 9H-FLUOREN-9-YLMETHYL ESTER] | 4.30 to 5.00
6 | NCCCC[C@H](NC(=O)OCC1c2ccccc2-c2ccccc21)C(=O)Nc1ccc(OCc2ccccc2)c(Cl)c1 [Compound 210, (S)-[5-AMINO-1-(4-BENZYLOXY-3-CHLORO-PHENYLCARBAMOYL)-PENTYL]-CARBAMIC ACID 9H-FLUOREN-9-YLMETHYL ESTER] | > 5.00
7 | O=C(Nc1ccc(C2CCCCC2)cc1)C1CNCCN1C(=O)OCC1c2ccccc2-c2ccccc21 (racemic) [Compound 156, (+/−)-2-(4-CYCLOHEXYL-PHENYLCARBAMOYL)-PIPERAZINE-1-CARBOXYLIC ACID 9H-FLUOREN-9-YLMETHYL ESTER] | < 4.30
8 | NCCCCN(CC(=O)Nc1cccc2[nH]ccc12)C(=O)Nc1ccc(OCc2ccccc2)cc1 [Compound 281, 2-[1-(4-AMINO-BUTYL)-3-(4-BENZYLOXY-PHENYL)-UREIDO]-NR-(1H-INDOL-4-YL)-ACETAMIDE] | < 4.30
9 | Cc1ccc(NC(=O)CC2CN(C(=O)C(C)N)CCN2C(=O)OCC2c3ccccc3-c3ccccc32)cc1 [Compound 184, 4-((S)-2-AMINO-PROPIONYL)-2-(P-TOLYLCARBAMOYL-METHYL)-PIPERAZINE-1-CARBOXYLIC ACID 9H-FLUOREN-9-YLMETHYL ESTER] | < 4.30
10 | Cc1ccc(NC(=O)[C@H](CCCCN)NS(=O)(=O)c2cccc3nonc23)cc1 [Compound 398, (S)-6-AMINO-2-(BENZO[1,2,5]OXADIAZOLE-4-SULFONYLAMINO)-HEXANOIC ACID P-TOLYLAMIDE] | < 4.30
11 | Cc1ccc(NC(=O)C(CCCN)NC(=O)OCC2c3ccccc3-c3ccccc32)cc1 [Compound 101, (S)-(4-AMINO-1-P-TOLYLCARBAMOYL-BUTYL)-CARBAMIC ACID 9H-FLUOREN-9-YLMETHYL ESTER] | < 4.30
12 | Cc1ccc(NC(=O)C(Cc2c[nH]c3ccccc23)NC(=O)OCC2c3ccccc3-c3ccccc32)cc1 [Compound 379, (R)-[2-(1H-INDOL-3-YL)-1-P-TOLYLCARBAMOYL-ETHYL]-CARBAMIC ACID 9H-FLUOREN-9-YLMETHYL ESTER] | < 4.30
13 | Cc1cc2cc(NC(=O)[C@H](CCCCNC(=O)CN)NC(=O)Nc3ccc(OCc4ccccc4)cc3)ccc2[nH]1 [Compound 239, (S)-6-(2-AMINO-ACETYLAMINO)-2-[3-(4-BENZYLOXY-PHENYL)-UREIDO]-HEXANOIC ACID (2-METHYL-1H-INDOL-5-YL)-AMIDE] | > 5.00
14 | Cc1ccc(NC(=O)C(CCCCN)NC(=O)C2c3ccccc3-c3ccccc32)cc1 [Compound 52, (S)-9H-FLUORENE-9-CARBOXYLIC ACID (5-AMINO-1-P-TOLYLCARBAMOYL-PENTYL)-AMIDE] | < 4.30
15 | NCCCC[C@H](NC(=O)OCC1c2ccccc2-c2ccccc21)C(=O)Nc1ccc(F)cc1 [Compound 44, (S)-[5-AMINO-1-(4-FLUORO-PHENYLCARBAMOYL)-PENTYL]-CARBAMIC ACID 9H-FLUOREN-9-YLMETHYL ESTER] | < 4.30
16 | Cc1ccc(NC(=O)[C@H](CCCCN)NC(=O)CNc2ccc(F)cc2)cc1 [Compound 361, (S)-6-AMINO-2-[2-(4-FLUORO-PHENYLAMINO)-ACETYLAMINO]-HEXANOIC ACID P-TOLYLAMIDE] | < 4.30
17 | Cc1cc2cc(NC(=O)[C@H](CCCNC(=O)CN)NC(=O)Nc3ccc(OCc4ccccc4)cc3)ccc2[nH]1 [Compound 296, (S)-5-(2-AMINO-ACETYLAMINO)-2-[3-(4-BENZYLOXY-PHENYL)-UREIDO]-PENTANOIC ACID (2-METHYL-1H-INDOL-5-YL)-AMIDE] | 4.30 to 5.00
18 | Cc1cccc(NC(=O)[C@H](CCCCN)NC(=O)OCC2c3ccccc3-c3ccccc32)c1 [Compound 47, (S)-(5-AMINO-1-M-TOLYLCARBAMOYL-PENTYL)-CARBAMIC ACID 9H-FLUOREN-9-YLMETHYL ESTER] | < 4.30
19 | Cc1cc2cc(NC(=O)[C@H](Cc3ccc(CN)cc3)NC(=O)OCC3c4ccccc4-c4ccccc43)ccc2[nH]1 [Compound 215, (S)-[2-(4-AMINOMETHYL-PHENYL)-1-(2-METHYL-1H-INDOL-5-YLCARBAMOYL)-ETHYL]-CARBAMIC ACID 9H-FLUOREN-9-YLMETHYL ESTER] | 4.30 to 5.00
20 | Cc1ccc(NC(=O)C(CCCCN)NC(=O)CNc2cccc(C(F)(F)F)c2)cc1 [Compound 364, (S)-6-AMINO-2-[2-(3-TRIFLUOROMETHYL-PHENYLAMINO)-ACETYLAMINO]-HEXANOIC ACID P-TOLYLAMIDE] | < 4.30

Row | SMILES | pIC50
21 | NCCCC[C@H](NC(=O)OCC1c2ccccc2-c2ccccc21)C(=O)Nc1cccc2[nH]ccc12 [Compound 208, (S)-[5-AMINO-1-(1H-INDOL-4-YLCARBAMOYL)-PENTYL]-CARBAMIC ACID 9H-FLUOREN-9-YLMETHYL ESTER] | > 5.00
22 | Cc1ccc(NC(=O)[C@H](CCCCO)NC(=O)Nc2ccc(OCc3ccccc3)cc2)cc1 [Compound 309, (S)-2-[3-(4-BENZYLOXY-PHENYL)-UREIDO]-6-HYDROXY-HEXANOIC ACID P-TOLYLAMIDE] | < 4.30
23 | Cc1ccc(NC(=O)[C@H](CCCCN)NC(=O)Nc2ccc(OCc3ccc(Cl)cc3Cl)cc2)cc1 [Compound 274, (S)-6-AMINO-2-{3-[4-(2,4-DICHLORO-BENZYLOXY)-PHENYL]-UREIDO}-HEXANOIC ACID P-TOLYLAMIDE] | > 5.00
24 | NCCCC[C@H](NC(=O)Nc1ccc(OCc2ccccc2)cc1)C(=O)Nc1cccc2c1CCC2 [Compound 321, (S)-6-AMINO-2-[3-(4-BENZYLOXY-PHENYL)-UREIDO]-HEXANOIC ACID INDAN-4-YLAMIDE] | > 5.00
25 | Cc1ccc(NC(=O)C2CC(O)CN2C(=O)OCC2c3ccccc3-c3ccccc32)cc1 [Compound 87, (4R,S)-4-HYDROXY-2-P-TOLYLCARBAMOYL-PYRROLIDINE-1-CARBOXYLIC ACID 9H-FLUOREN-9-YLMETHYL ESTER] | < 4.30
26 | Cc1ccc(NC(=O)[C@H](CCCCN)NC(=O)Nc2ccc(NCc3ccccc3)cc2)cc1 [Compound 224, (S)-6-AMINO-2-[3-(4-BENZYLAMINO-PHENYL)-UREIDO]-HEXANOIC ACID P-TOLYLAMIDE] | 4.30 to 5.00
27 | COc1ccc(S(=O)(=O)N[C@@H](CCCCN)C(=O)Nc2ccc(C)cc2)cc1OC [Compound 386, (S)-6-AMINO-2-(3,4-DIMETHOXY-BENZENESULFONYLAMINO)-HEXANOIC ACID P-TOLYLAMIDE] | < 4.30
28 | CC(C)(NC(=O)OCC1c2ccccc2-c2ccccc21)C(=O)Nc1ccc(C=CC(=O)O)cc1 [Compound 39, 3-{4-[2-((9H-FLUOREN-9-YLMETHOXYCARBONYL)AMINO)-2-METHYL-PROPIONYLAMINO]-PHENYL}-ACRYLIC ACID] | < 4.30
29 | NCCCCC(NC(=O)OCC1c2ccccc2-c2ccccc21)C(=O)Nc1ccccc1 (stereo in doubt) [Compound 19, (S)-(5-AMINO-1-PHENYLCARBAMOYL-PENTYL)-CARBAMIC ACID 9H-FLUOREN-9-YLMETHYL ESTER] | < 4.30
30 | NCCCC[C@@H](NC(=O)NCc1ccc(Cl)cc1)C(=O)Nc1ccc(C2CCCCC2)cc1 [Compound 164, (R)-6-AMINO-2-[3-(4-CHLORO-BENZYL)-UREIDO]-HEXANOIC ACID (4-CYCLOHEXYL-PHENYL)-AMIDE] | > 5.00
31 | CSCCC(NC(=O)OCC1c2ccccc2-c2ccccc21)C(=O)Nc1ccc(C)cc1 (stereo not drawn) [Compound 383] | < 4.30
32 | Cc1ccc(NC(=O)C(CCCCN)NC(=O)Nc2ccc(-c3ccccc3)cc2)cc1 [Compound 171, (R)-6-AMINO-2-(3-BIPHENYL-4-YL-UREIDO)-HEXANOIC ACID P-TOLYLAMIDE] | 4.30 to 5.00
33 | Cc1ccc(NC(=O)[C@H](CCCCN)NC(=O)Nc2ccc(OCc3ccncc3)cc2)cc1 [Compound 279, (S)-6-AMINO-2-{3-[4-(PYRIDIN-4-YLMETHOXY)-PHENYL]-UREIDO}-HEXANOIC ACID P-TOLYLAMIDE] | < 4.30
34 | Cc1ccc(NC(=O)[C@H](CCCCN)NC(=O)Nc2ccc(O)cc2)cc1 [Compound 194, (S)-6-AMINO-2-[3-(4-HYDROXY-PHENYL)-UREIDO]-HEXANOIC ACID P-TOLYLAMIDE] | < 4.30
35 | O=CNCCCC[C@H](NC(=O)OCC1c2ccccc2-c2ccccc21)C(=O)Nc1ccc(Cl)c(Cl)c1 [Compound 217, (S)-[1-(3,4-DICHLORO-PHENYLCARBAMOYL)-5-FORMYLAMINO-PENTYL]-CARBAMIC ACID 9H-FLUOREN-9-YLMETHYL ESTER] | 4.30 to 5.00
36 | NCCCC[C@H](NC(=O)OCC1c2ccccc2-c2ccccc21)C(=O)Nc1ccc2[nH]ncc2c1 [Compound 82, (S)-[5-AMINO-1-(1H-INDAZOL-5-YLCARBAMOYL)-PENTYL]-CARBAMIC ACID 9H-FLUOREN-9-YLMETHYL ESTER] | < 4.30
37 | NCCCC[C@@H](NC(=O)NCc1ccccc1)C(=O)Nc1ccc(C2CCCCC2)cc1 [Compound 141, (R)-6-AMINO-2-(3-BENZYL-UREIDO)-HEXANOIC ACID (4-CYCLOHEXYL-PHENYL)-AMIDE] | > 5.00
38 | Cc1ccc(NC(=O)C(CCCCN)NC(=O)CNCc2ccccc2C(F)(F)F)cc1 [Compound 350, (S)-6-AMINO-2-[2-(2-TRIFLUOROMETHYL-BENZYLAMINO)-ACETYLAMINO]-HEXANOIC ACID P-TOLYLAMIDE] | < 4.30
39 | C=CCOC(=O)NCCCC[C@H](N)C(=O)Nc1ccc(CN(C(=O)c2ccco2)C2CCCCC2)cc1 [Compound 5, (S)-[5-AMINO-5-(4-{[CYCLOHEXYL-(FURAN-2-CARBONYL)-AMINO]-METHYL}-PHENYLCARBAMOYL)-PENTYL]-CARBAMIC ACID ALLYL ESTER] | < 4.30
